Measurements as given in PubChem BioAssay AID1963973 (Molecular Pharmacology Branch, DTP, NCI, 2024).

Tested on: 883617-216-R-J1-PDC tumor spheroids, viability
Assay: Anticancer human tumor 883617-216-R-J1-PDC patient-derived bladder carcinoma cell line growth inhibition [PI3K]
Conditions: spheroids with HUVEC and MSC; for IC50: curve of first compound; for viability, T/C: stronger effect = lower value
How it was run: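 We assembled tumor spheroids that included a stromal compartment of HUVEC and MSCs, then exposed them to targeted agents alone and together with PI3K pathway inhibitors. Concentration series descended by half-log from clinically achievable Cmax levels. Viability served as the endpoint.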

[1] = second compound 0.0316 µM, first compound 0.0316 µM
[2] = second compound 0.0316 µM, first compound 0.1 µM
[3] = second compound 0.0316 µM, first compound 0.316 µM
[4] = second compound 0.0316 µM, first compound 1 µM
[5] = second compound 0.1 µM, first compound 0.0316 µM
[6] = second compound 0.1 µM, first compound 0.1 µM
[7] = second compound 0.1 µM, first compound 0.316 µM
[8] = second compound 0.1 µM, first compound 1 µM
[9] = second compound 0.316 µM, first compound 0.0316 µM
[10] = second compound 0.316 µM, first compound 0.1 µM
[11] = second compound 0.316 µM, first compound 0.316 µM
[12] = second compound 0.316 µM, first compound 1 µM
[13] = second compound 1 µM, first compound 0.0316 µM
[14] = second compound 1 µM, first compound 0.1 µM
[15] = second compound 1 µM, first compound 0.316 µM
[16] = second compound 1 µM, first compound 1 µM
[17] = second compound 3.16 µM, first compound 0.0316 µM
[18] = second compound 3.16 µM, first compound 0.1 µM
[19] = second compound 3.16 µM, first compound 0.316 µM
[20] = second compound 3.16 µM, first compound 1 µM
[21] = second compound 10 µM, first compound 0.0316 µM
[22] = second compound 10 µM, first compound 0.1 µM
[23] = second compound 10 µM, first compound 0.316 µM
[24] = second compound 10 µM, first compound 1 µM
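Note: spheroids exposed to agents for 7 days before the viability read.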

Question: `CC(C)NCC(C(=O)N1CCN(c2ncnc3c2C(C)CC3O)CC1)c1ccc(Cl)cc1` (centres undefined) + CC(Nc1ncnc2nc[nH]c12)c1cc2cccc(Cl)c2c(=O)n1-c1ccccc1 was tested. Which IC50 (second compound 0.0316 µM) did it give?
Answer: The IC50 was 520 nM.

Question: And the IC50 (second compound 0.1 µM)?
Answer: Its IC50 is 556 nM.

Question: What about the IC50 (second compound 0.316 µM) of the same compound?
Answer: Its IC50 is 492 nM.

Question: What about the IC50 (second compound 1 µM) of the same compound?
Answer: Its IC50 is 513 nM.

Question: What about the IC50 (second compound 3.16 µM) of the same compound?
Answer: The IC50 was 345 nM.

Question: What about the IC50 (second compound 10 µM) of the same compound?
Answer: Its IC50 is less than 31.6 nM.

Question: What about the viability, T/C [1] of the same compound?
Answer: Its viability, T/C is 87.6%.

Question: And the viability, T/C [2]?
Answer: The viability, T/C was 84.8%.

Question: What about the viability, T/C [3] of the same compound?
Answer: Its viability, T/C is 55%.

Question: And the viability, T/C [4]?
Answer: Its viability, T/C is 39.7%.

Question: And the viability, T/C (second compound 0.0316 µM, first compound 3.16 µM)?
Answer: The viability, T/C was 17.8%.

Question: What about the viability, T/C (second compound 0.0316 µM, first compound 10 µM) of the same compound?
Answer: Its viability, T/C is 9.17%.

Question: What about the viability, T/C [5] of the same compound?
Answer: The viability, T/C was 78.2%.

Question: And the viability, T/C [6]?
Answer: The viability, T/C was 76%.

Question: What about the viability, T/C [7] of the same compound?
Answer: The viability, T/C was 59.9%.

Question: And the viability, T/C [8]?
Answer: Its viability, T/C is 38.7%.

Question: And the viability, T/C (second compound 0.1 µM, first compound 3.16 µM)?
Answer: Its viability, T/C is 18.9%.

Question: And the viability, T/C (second compound 0.1 µM, first compound 10 µM)?
Answer: The viability, T/C was 8.02%.

Question: What about the viability, T/C [9] of the same compound?
Answer: The viability, T/C was 97.8%.

Question: What about the viability, T/C [10] of the same compound?
Answer: Its viability, T/C is 78.8%.

Question: And the viability, T/C [11]?
Answer: The viability, T/C was 60.9%.

Question: What about the viability, T/C [12] of the same compound?
Answer: Its viability, T/C is 35.4%.

Question: What about the viability, T/C (second compound 0.316 µM, first compound 3.16 µM) of the same compound?
Answer: The viability, T/C was 17.8%.

Question: What about the viability, T/C (second compound 0.316 µM, first compound 10 µM) of the same compound?
Answer: The viability, T/C was 8.48%.

Question: And the viability, T/C [13]?
Answer: The viability, T/C was 69.1%.

Question: What about the viability, T/C [14] of the same compound?
Answer: Its viability, T/C is 81.1%.

Question: And the viability, T/C [15]?
Answer: Its viability, T/C is 52.4%.

Question: What about the viability, T/C [16] of the same compound?
Answer: The viability, T/C was 40%.

Question: And the viability, T/C (second compound 1 µM, first compound 3.16 µM)?
Answer: The viability, T/C was 17.1%.

Question: And the viability, T/C (second compound 1 µM, first compound 10 µM)?
Answer: Its viability, T/C is 6.81%.

Question: What about the viability, T/C [17] of the same compound?
Answer: Its viability, T/C is 64%.

Question: What about the viability, T/C [18] of the same compound?
Answer: Its viability, T/C is 53.8%.

Question: And the viability, T/C [19]?
Answer: Its viability, T/C is 55.2%.

Question: What about the viability, T/C [20] of the same compound?
Answer: The viability, T/C was 28.8%.

Question: What about the viability, T/C (second compound 3.16 µM, first compound 3.16 µM) of the same compound?
Answer: Its viability, T/C is 16.5%.

Question: What about the viability, T/C (second compound 3.16 µM, first compound 10 µM) of the same compound?
Answer: The viability, T/C was 7.2%.

Question: What about the viability, T/C [21] of the same compound?
Answer: The viability, T/C was 49.6%.

Question: And the viability, T/C [22]?
Answer: The viability, T/C was 42.7%.

Question: What about the viability, T/C [23] of the same compound?
Answer: The viability, T/C was 38.7%.

Question: What about the viability, T/C [24] of the same compound?
Answer: Its viability, T/C is 25.4%.

Question: What about the viability, T/C (second compound 10 µM, first compound 3.16 µM) of the same compound?
Answer: The viability, T/C was 13.1%.

Question: And the viability, T/C (second compound 10 µM, first compound 10 µM)?
Answer: The viability, T/C was 6.37%.

Question: With `CCN1CCN(Cc2ccc(Nc3ncc(F)c(-c4cc(F)c5nc(C)n(C(C)C)c5c4)n3)nc2)CC1` + CC(Nc1ncnc2nc[nH]c12)c1cc2cccc(Cl)c2c(=O)n1-c1ccccc1 as the compound, how does the IC50 (second compound 0.0316 µM) read?
Answer: The IC50 was greater than 1000 nM.

Question: And the IC50 (second compound 0.1 µM)?
Answer: The IC50 was greater than 1000 nM.

Question: And the IC50 (second compound 0.316 µM)?
Answer: The IC50 was 582 nM.

Question: And the IC50 (second compound 1 µM)?
Answer: The IC50 was 282 nM.

Question: What about the IC50 (second compound 3.16 µM) of the same compound?
Answer: The IC50 was 31.9 nM.

Question: And the IC50 (second compound 10 µM)?
Answer: Its IC50 is 3.37 nM.

Question: And the viability, T/C (second compound 0.0316 µM, first compound 0.00316 µM)?
Answer: Its viability, T/C is 91.4%.

Question: And the viability, T/C (second compound 0.0316 µM, first compound 0.01 µM)?
Answer: The viability, T/C was 79.4%.

Question: What about the viability, T/C [1] of the same compound?
Answer: The viability, T/C was 79.2%.

Question: And the viability, T/C [2]?
Answer: Its viability, T/C is 65.7%.

Question: What about the viability, T/C [3] of the same compound?
Answer: Its viability, T/C is 56.3%.

Question: What about the viability, T/C [4] of the same compound?
Answer: The viability, T/C was 51.3%.

Question: And the viability, T/C (second compound 0.1 µM, first compound 0.00316 µM)?
Answer: The viability, T/C was 89.3%.

Question: What about the viability, T/C (second compound 0.1 µM, first compound 0.01 µM) of the same compound?
Answer: Its viability, T/C is 88.8%.

Question: And the viability, T/C [5]?
Answer: The viability, T/C was 71.6%.

Question: And the viability, T/C [6]?
Answer: The viability, T/C was 60.2%.

Question: What about the viability, T/C [7] of the same compound?
Answer: Its viability, T/C is 64.1%.

Question: And the viability, T/C [8]?
Answer: Its viability, T/C is 50.7%.

Question: And the viability, T/C (second compound 0.316 µM, first compound 0.00316 µM)?
Answer: Its viability, T/C is 87.5%.

Question: And the viability, T/C (second compound 0.316 µM, first compound 0.01 µM)?
Answer: The viability, T/C was 78.4%.

Question: What about the viability, T/C [9] of the same compound?
Answer: Its viability, T/C is 60.8%.

Question: And the viability, T/C [10]?
Answer: The viability, T/C was 67.8%.

Question: What about the viability, T/C [11] of the same compound?
Answer: Its viability, T/C is 46%.

Question: What about the viability, T/C [12] of the same compound?
Answer: The viability, T/C was 49.6%.

Question: What about the viability, T/C (second compound 1 µM, first compound 0.00316 µM) of the same compound?
Answer: The viability, T/C was 69.6%.

Question: And the viability, T/C (second compound 1 µM, first compound 0.01 µM)?
Answer: The viability, T/C was 69.4%.

Question: And the viability, T/C [13]?
Answer: The viability, T/C was 59.3%.

Question: What about the viability, T/C [14] of the same compound?
Answer: The viability, T/C was 52.2%.

Question: What about the viability, T/C [15] of the same compound?
Answer: Its viability, T/C is 54.8%.

Question: And the viability, T/C [16]?
Answer: Its viability, T/C is 40.2%.

Question: What about the viability, T/C (second compound 3.16 µM, first compound 0.00316 µM) of the same compound?
Answer: Its viability, T/C is 72.5%.

Question: What about the viability, T/C (second compound 3.16 µM, first compound 0.01 µM) of the same compound?
Answer: The viability, T/C was 61.9%.

Question: And the viability, T/C [17]?
Answer: The viability, T/C was 50.3%.

Question: And the viability, T/C [18]?
Answer: Its viability, T/C is 40.7%.

Question: And the viability, T/C [19]?
Answer: Its viability, T/C is 40.1%.

Question: What about the viability, T/C [20] of the same compound?
Answer: The viability, T/C was 35.2%.

Question: What about the viability, T/C (second compound 10 µM, first compound 0.00316 µM) of the same compound?
Answer: The viability, T/C was 51.3%.

Question: And the viability, T/C (second compound 10 µM, first compound 0.01 µM)?
Answer: The viability, T/C was 34.8%.

Question: And the viability, T/C [21]?
Answer: The viability, T/C was 34%.

Question: And the viability, T/C [22]?
Answer: The viability, T/C was 30.8%.

Question: What about the viability, T/C [23] of the same compound?
Answer: The viability, T/C was 28.1%.

Question: And the viability, T/C [24]?
Answer: The viability, T/C was 27%.
